# According to patent US20180117148A1, “COMPOUNDS, PHARMACEUTICAL COMPOSITIONS AND METHODS OF TREATMENTS OF IMMUNE RELATED DISEASES AND DISORDERS” (priority 2016, published 2018):
# Values joined by “and” are separate entries in the source; they are usually repeats but may differ in a detail not shown here. Equal values may be shown once.
# How the values were obtained:
# [1] = test system: patients with either rheumatoid or psoriatic arthritis; test: Retrospective community-based study of etanercept with adjunctive neuroregulatory medications, 28-joint count (swollen and tender); assay type: in vivo, human
# Procedure: A retrospective, community-based study assessed consecutive patients initiating biologic treatment of inflammatory arthritis. Improved outcomes were measured by a 28-joint count (swollen and tender). […] Consecutive patients with either rheumatoid or psoriatic arthritis initiated etanercept (25 mg/BIW). For partial response, neuroregulatory medications were added. Neuroregulatory medication options included bedtime dosing of either lorazepam or clonazepam, pramipexole, trazodone, other antidepressants and anticonvulsants.
# Primary outcome: “≥70% reduction in 28-joint count (tender and swollen). Statistical analysis: LOCF and logistic regression (see data in FIGS. 1 and 2).
# [2] = test system: inflammatory joint diseases like rheumatoid arthritis (RA) and psoriatic arthritis; details: etanercept in inflammatory joint diseases (RA, psoriatic arthritis); background figure; cited from earlier work
substance,measurement,setting,value
etanercept,patients in whom NSAIDs were discontinued,[1]; 14 of 29 on NSAIDs at baseline,48%
same,patients in whom other DMARDs were discontinued,[1]; 22 of 28 on other DMARDs at baseline,79%
same,patients in whom methotrexate was discontinued,[1]; 24 of 32 on methotrexate at baseline (19.14 mg/wk),75%
same,patients in whom prednisone was discontinued,[1]; 26 of 42 on prednisone at baseline (6.7 mg/d),62%
same,patients achieving ≥70% reduction in joint count,"[1]; by BOCF, 66 patients, etanercept 25 mg BIW, neuroregulatory medications added for partial response",74%
same,"patients achieving ≥70% reduction in 28-joint count (tender and swollen), primary outcome","[1]; by LOCF, 52/66 patients, etanercept 25 mg BIW, neuroregulatory medications added for partial response (36/66), p<0.001",79%
same,mean 28-joint count after addition of etanercept,"[1]; decreased from baseline 11.6±9.0, 66 patients, etanercept 25 mg BIW, neuroregulatory medications added for partial response",1.3 and 1.3±4.3
same,patients achieving American College of Rheumatology 70% improvement (ACR70) response,[2],About 27%
same,patients receiving disease activity score (DAS) remission response,[2],20.5%
